Consider 9 compounds from ChEMBL document CHEMBL1938333, “Novel, potent and orally bioavailable indolizidinone-derived inhibitors of the hepatitis C virus NS3 protease” (Bioorg Med Chem Lett, 2012).

The test system of data set [1] is Hepatitis C virus. Description: Inhibition of HCV1b NS3/4A protease by FRET assay. Also on record: species or system Hepatitis C virus subtype 1b.
A short description of data set [2]: Clearance in Sprague-Dawley rat at 1 mg/kg, iv. The format is ADME, organism-based. Also on record: dose 1 mg/kg, route intravenous. Particulars: in vivo.
Data set [3] in a line: Mean residence time in Sprague-Dawley rat at 1 mg/kg, iv. Type of data set: ADME, organism-based. Also on record: dose 1 mg/kg, route intravenous. Particulars: in vivo.
The nature of data set [4]: Lipophilicity, log D of the compound. Type of data set: physicochemical. Particulars: octanol/water.
Data set [5] can be described thus: Oral bioavailability in Sprague-Dawley rat at 10 mg/kg. The format is ADME, organism-based. The settings on record: in vivo.
The subject of data set [6] is Hepatitis C virus. Description: Antiviral activity against HCV1b infected in human 1b-Rluc cells by replicon assay. Type of data set: functional, organism-based, Hepacivirus hominis. Particulars: genotype 1b. On the technique in general: A replicon is a self-replicating genome or part of one, used to study replication in cells.

In general, IC50 refers to the midpoint of a concentration-inhibition curve. Higher therefore signals lower potency. Take `C=C[C@@H]1C[C@]1(NC(=O)[C@@H]1C[C@@H](Oc2cc(-c3nc(C(C)C)cs3)nc3c(Cl)c(OC)ccc23)[C@H]2CCCC(=O)N21)C(=O)NS(=O)(=O)C1CC1`: in data set [1], half-maximal inhibition (IC50) required 32 nM.

The term clearance denotes a measure of how efficiently the substance is removed, as volume per time. One may read the MRT as a mean duration of stay, worked out from the concentration-time curve. The logD is the decadic logarithm of the distribution of all forms, ionised or not, between an organic phase and buffer at a given pH. Higher therefore signals higher lipophilicity. By bioavailability is commonly meant dose-corrected exposure relative to a reference, in per cent. Read a high bioavailability as good availability. As usually defined, the EC50 is the concentration at which the effect is half-maximal. The low end stands for higher potency in that assay, the high end for lower potency in that assay. Regarding `C=C[C@@H]1C[C@]1(NC(=O)[C@@H]1C[C@@H](Oc2cc(-c3nc(C(C)C)cs3)nc3c(C)c(OC)ccc23)[C@H]2CC[C@H](C(C)C)C(=O)N21)C(=O)NS(=O)(=O)C1CC1`, in data set [2], the clearance is 14.8 mL/min/kg. In data set [3], this compound yielded a mean residence time (MRT) of 52.8 min. In data set [1], the IC50 was found to be 3 nM. In data set [4], this compound registered a logD of 4.5. In data set [5], this compound came in with a bioavailability of 44%. The same compound came in with an EC50 in data set [6] of 213 nM.

`C=C[C@@H]1C[C@]1(NC(=O)[C@@H]1C[C@@H](Oc2cc(OCC)nc3c(C)c(OC)ccc23)[C@H]2CC[C@H](C(C)C)C(=O)N21)C(=O)NS(=O)(=O)C1CC1`: the IC50 in data set [1] turned out to be 2 nM. In addition, the EC50 in data set [6] worked out at 818 nM.

In data set [1], `C=C[C@@H]1C[C@]1(NC(=O)[C@@H]1C[C@@H](Oc2cc(-c3nc(C(C)C)cs3)nc3c(C)c(OC)ccc23)[C@H]2CCCC(=O)N21)C(=O)NS(=O)(=O)C1CC1` gave a concentration for half-maximal inhibition (IC50) of 47 nM.

In data set [2], `C=C[C@@H]1C[C@]1(NC(=O)[C@@H]1C[C@@H](Oc2cc(-c3nc(C(C)C)cs3)nc3c(Cl)c(OCCN4CCOCC4)ccc23)[C@H]2CC[C@H](C(C)C)C(=O)N21)C(=O)NS(=O)(=O)C1CC1` had a clearance of 26.2 mL/min/kg. This compound also came in with a mean residence time (MRT) in data set [3] of 44.4 min. The IC50 in data set [1] was 3 nM. In data set [4], this compound had a logD of 3.26. Besides, the bioavailability in data set [5] came out at 35%. The compound also returned a 50% effective concentration (EC50) in data set [6] of 81 nM.

In data set [1], `C=C[C@@H]1C[C@]1(NC(=O)[C@@H]1C[C@@H](Oc2cc(-c3nc(C(C)C)cs3)nc3c(Cl)c(OC)ccc23)[C@H]2CC[C@H](C(C)C)C(=O)N21)C(=O)NS(=O)(=O)C1CC1` returned an IC50 of 2 nM. This compound also yielded a logD in data set [4] of 3.85. Besides, the EC50 in data set [6] is 76 nM.

Compound `C=C[C@@H]1C[C@]1(NC(=O)[C@@H]1C[C@@H](Oc2cc(-c3nc(C(C)C)cs3)nc3c(Cl)c(OCCOC)ccc23)[C@H]2CC[C@H](C(C)C)C(=O)N21)C(=O)NS(=O)(=O)C1CC1` showed a clearance in data set [2] of 11.2 mL/min/kg. For the same compound, the mean residence time (MRT) in data set [3] came out at 75.6 min. This compound also had an IC50 in data set [1] of 1 nM. In data set [4], the logD was 3.54. Moreover, the bioavailability in data set [5] was determined as 21%. The EC50 in data set [6] amounted to 75 nM.

With `C=C[C@@H]1C[C@]1(NC(=O)[C@@H]1C[C@@H](Oc2cc(-c3csc(NC(C)C)n3)nc3c(Cl)c(OC)ccc23)CN1C(=O)[C@@H](NC(=O)OC1CCCC1)C(C)(C)C)C(=O)O`, in data set [1], it took 2.6 nM to reach half-maximal inhibition (IC50). This lies in the single-digit nanomolar range.

In data set [1], `C=C[C@@H]1C[C@]1(NC(=O)[C@@H]1C[C@@H](Oc2cc(-c3cccc(C(C)C)n3)nc3c(Cl)c(OCCOC)ccc23)[C@H]2CC[C@H](C(C)C)C(=O)N21)C(=O)NS(=O)(=O)C1CC1` came in with an IC50 of 1 nM. This compound also returned an EC50 in data set [6] of 144 nM.
